# Laboratory results reported in publication PMC12892976, “Alkylation-based optimization of antifungal FPPS inhibitors yields a potent, broad-spectrum lipophilic zoledronate derivative” (mBio, 2025).
# Legend:
# [1] = test system: Aspergillus flavus; experiment: checkerboard drug interaction (FICI, MICc); type: cell-based;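 also: simplified diagonal checkerboard screen pairing azole antifungals with FPPS inhibitors, FICI calculated under the Loewe additivity model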
# Experimental: (§1) Drug interactions between antifungals and FPPS inhibitors were investigated using a simplified checkerboard diagonal screening method ([45]). […] FICIs were determined according to the Loewe additivity model ([17]).
# [2] = test system: Saccharomyces cerevisiae; experiment: MIC/MFC broth microdilution (CLSI); type: cell-based; settings: Saccharomyces cerevisiae S288c
# Experimental: (§2) Antifungal susceptibility was determined by broth microdilution according to the CLSI guidelines described in M27-Ed4 ([16]). […] MFC was determined by back-plating drug-treated cultures from MIC broths onto SDA plates. The MFC was defined as the lowest concentration from which no colonies could be cultured.
# [3] = test system: Cryptococcus deuterogattii; experiment: MIC/MFC broth microdilution (CLSI); settings: for MIC / MEC: Cryptococcus deuterogattii R265;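 as to all read-outs here: broth microdilution per CLSI M27-Ed4. MFC is the lowest concentration yielding no colonies when MIC broths are subcultured onto SDA plates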
# Experimental: as §2
# [4] = test system: Candida tropicalis; experiment: MIC broth microdilution (CLSI); type: cell-based; settings: Candida tropicalis M230640
# Experimental: (§3) Antifungal susceptibility was determined by broth microdilution according to the CLSI guidelines described in M27-Ed4 ([16]).
# [5] = test system: Candida albicans; experiment: MIC/MFC broth microdilution (CLSI); type: cell-based; settings: Candida albicans SC5314
# Experimental: as §2
# [6] = test system: Saccharomyces cerevisiae; experiment: checkerboard drug interaction (FICI, MICc); type: cell-based;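 also: simplified diagonal checkerboard screen pairing antifungals with FPPS inhibitors, FICI calculated under the Loewe additivity model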
# Experimental: as §1
# [7] = test system: Aspergillus fumigatus; experiment: checkerboard drug interaction (FICI, MICc); type: cell-based;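 also: simplified diagonal checkerboard screen pairing antifungals with FPPS inhibitors against Aspergillus fumigatus, with FICI calculated under the Loewe additivity model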
# Experimental: as §1
# [8] = test system: Trichophyton rubrum; experiment: checkerboard drug interaction (FICI, MICc); type: cell-based;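 also: simplified diagonal checkerboard screen pairing azole antifungals with FPPS inhibitors, FICI calculated under the Loewe additivity model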
# Experimental: as §1
# [9] = test system: Trichophyton rubrum; experiment: MIC/MFC broth microdilution (CLSI); settings: for MIC / MEC: Trichophyton rubrum R-218
# Experimental: as §2
# [10] = test system: Candida glabrata; experiment: MIC/MFC broth microdilution (CLSI); settings: for MIC / MEC: Candida glabrata CBS138 (ATCC 2001);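 as to all read-outs here: broth microdilution following CLSI M27-Ed4, MFC taken as the lowest drug level yielding no growth once MIC wells were subcultured on SDA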
# Experimental: as §2
# [11] = test system: Cryptococcus neoformans; experiment: MIC/MFC broth microdilution (CLSI); settings: for MIC / MEC: Cryptococcus neoformans H99;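 as to all read-outs here: susceptibility testing followed the CLSI M27-Ed4 broth microdilution document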
# Experimental: as §2
# [12] = test system: Aspergillus felis; experiment: checkerboard drug interaction (FICI, MICc); type: cell-based;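 also: simplified diagonal checkerboard screen pairing antifungals with FPPS inhibitors, FICI calculated under the Loewe additivity model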
# Experimental: as §1
# [13] = test system: Candida glabrata; experiment: checkerboard drug interaction (FICI, MICc); type: cell-based
# Experimental: as §1
# [14] = test system: Cryptococcus neoformans; experiment: checkerboard drug interaction (FICI, MICc); type: cell-based;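 also: antifungal plus FPPS inhibitor pairs tested against Cryptococcus neoformans by simplified diagonal checkerboard screening, FICI computed under the Loewe additivity model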
# Experimental: as §1
# [15] = test system: Cryptococcus deuterogattii; experiment: checkerboard drug interaction (FICI, MICc); type: cell-based;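 also: simplified diagonal checkerboard screen pairing antifungal drugs with FPPS inhibitors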
# Experimental: as §1
# [16] = test system: Candida albicans; experiment: checkerboard drug interaction (FICI, MICc); type: cell-based;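 also: antifungal plus FPPS inhibitor combinations on Candida albicans tested by a simplified diagonal checkerboard screen, with FICI calculated under the Loewe additivity model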
# Experimental: as §1
# [17] = test system: Aspergillus flavus; experiment: MIC/MFC broth microdilution (CLSI); settings: ATCC204304
# Experimental: as §2
# [18] = test system: Aspergillus fumigatus; experiment: MIC/MFC broth microdilution (CLSI); settings: ATCC204305
# Experimental: as §2
# [19] = test system: Trichophyton interdigitale; experiment: MIC broth microdilution (CLSI); type: cell-based; settings: Trichophyton interdigitale R-234
# Experimental: as §3
# [20] = test system: eight fungal species; experiment: MIC/MFC summary across the eight fungal species of Table 1; type: cell-based
# Experimental: The antifungal activity of these compounds was evaluated according to CLSI guidelines ([16]).
smiles,measurement,setting,value
"OC(Cn1cncn1)(Cn1cncn1)c1ccc(F)cc1F [FLC, fluconazole]",antifungal MICc,[1]; in combination with 10-ZOL,32
same,antifungal MICc,[1]; in combination with ZOL,64
same,MFC,[2],64 µg/mL
same,MIC,[2],4 µg/mL
same,MIC / MEC,[2],4 µg/mL
same,MIC,[3]; Cryptococcus deuterogattii,2 µg/mL
same,MIC / MEC,[3],4 µg/mL
same,MIC / MEC,[4],16 µg/mL
same,MFC,[5],4 µg/mL
same,MIC,[5],0.5 µg/mL
same,MIC / MEC,[5],0.5 µg/mL
same,antifungal MICc,[6]; in combination with 10-ZOL,1
same,antifungal MICc,[6]; in combination with ZOL,1
same,effective concentration in combination,"[7]; FLC with 10-ZOL added, A. fumigatus",8 µg/mL
same,antifungal MICc,[7]; in combination with 10-ZOL,8
same,antifungal MICc,[7]; in combination with ZOL,64
same,antifungal MICc,[8]; in combination with 10-ZOL,8
same,antifungal MICc,[8]; in combination with ZOL,16
same,MIC,[9]; Trichophyton rubrum,64 µg/mL
same,MIC / MEC,[9],64 µg/mL
same,MIC / MEC,[10],4 µg/mL
same,MIC,"[10]; Nakaseomyces glabratus, CBS138",4 µg/mL
same,MIC,[11]; Cryptococcus neoformans,2 µg/mL
same,MIC / MEC,[11],4 µg/mL
same,antifungal MICc,[12]; in combination with 10-ZOL,4
same,antifungal MICc,[13]; in combination with 10-ZOL,1
same,antifungal MICc,[13]; in combination with ZOL,0.25
same,antifungal MICc,[14]; in combination with 10-ZOL,2
same,antifungal MICc,[14]; in combination with ZOL,4
same,antifungal MICc,[15]; in combination with 10-ZOL,2
same,antifungal MICc,[15]; in combination with ZOL,4
same,antifungal MICc,[16]; in combination with 10-ZOL,1
same,antifungal MICc,[16]; in combination with ZOL,2
same,MIC,[17],64 µg/mL
"CCC(C)n1ncn(-c2ccc(N3CCN(c4ccc(OCC5COC(Cn6cncn6)(c6ccc(Cl)cc6Cl)O5)cc4)CC3)cc2)c1=O (stereo not drawn) [ITR, itraconazole]",MFC,[18],4 µg/mL
same,MIC,[18],0.125 µg/mL
same,MIC / MEC,[18],0.13 µg/mL
same,antifungal MICc,[1]; in combination with 10-ZOL,0.5
same,antifungal MICc,[1]; in combination with ZOL,0.5
same,MFC,[2],1 µg/mL
same,MIC,[2],0.25 µg/mL
same,MIC / MEC,[2],0.25 µg/mL
same,MFC,[3]; Cryptococcus deuterogattii,4 µg/mL
same,MIC,[3]; Cryptococcus deuterogattii,1 µg/mL
same,MIC / MEC,[3],1 µg/mL
same,MIC / MEC,[4],0.25 µg/mL
same,MFC,[5],2 µg/mL
same,MIC,[5],0.25 µg/mL
same,MIC / MEC,[5],0.25 µg/mL
same,antifungal MICc,[6]; in combination with 10-ZOL,0.125
same,antifungal MICc,[6]; in combination with ZOL,0.063
same,antifungal MICc,[7]; in combination with 10-ZOL,0.063
same,antifungal MICc,[7]; in combination with ZOL,0.063
same,antifungal MICc,[8]; in combination with 10-ZOL,1
same,antifungal MICc,[8]; in combination with ZOL,2
same,MIC / MEC,[19],1 µg/mL
same,MFC,[9]; Trichophyton rubrum,> 16 µg/mL
same,MIC,[9]; Trichophyton rubrum,8 µg/mL
same,MIC / MEC,[9],8 µg/mL
same,MIC / MEC,[10],0.13 µg/mL
same,MFC,"[10]; Nakaseomyces glabratus, CBS138",4 µg/mL
same,MIC,"[10]; Nakaseomyces glabratus, CBS138",0.125 µg/mL
same,MFC,[11]; Cryptococcus neoformans,4 µg/mL
same,MIC,[11]; Cryptococcus neoformans,0.5 µg/mL
same,MIC / MEC,[11],0.5 µg/mL
same,antifungal MICc,[12]; in combination with 10-ZOL,0.5
same,antifungal MICc,[12]; in combination with ZOL,1
same,antifungal MICc,[13]; in combination with 10-ZOL,0.031
same,antifungal MICc,[13]; in combination with ZOL,0.016
same,antifungal MICc,[14]; in combination with 10-ZOL,0.063
same,antifungal MICc,[14]; in combination with ZOL,0.125
same,antifungal MICc,[15]; in combination with 10-ZOL,0.125
same,antifungal MICc,[15]; in combination with ZOL,0.25
same,antifungal MICc,[16]; in combination with 10-ZOL,0.25
same,antifungal MICc,[16]; in combination with ZOL,0.25
same,MFC,"[20]; across eight species, read-out: Geometric mean MFC",3.7 µg/mL
same,MIC,[20]; read-out: Geometric mean MIC,0.5 µg/mL
same,MFC,[17],2 µg/mL
same,MIC,[17],0.5 µg/mL
same,MIC / MEC,[17],0.5 µg/mL
C[C@@H](c1ncncc1F)[C@](O)(Cn1cncn1)c1ccc(F)cc1F [VOR],MIC / MEC,[18],0.5 µg/mL
same,antifungal MICc,[1]; in combination with 10-ZOL,0.06
same,antifungal MICc,[1]; in combination with ZOL,0.25
same,MIC / MEC,[2],0.5 µg/mL
same,MIC / MEC,[3],0.25 µg/mL
same,MIC / MEC,[4],0.13 µg/mL
same,MIC / MEC,[5],0.13 µg/mL
same,antifungal MICc,[6]; in combination with 10-ZOL,0.25
same,antifungal MICc,[6]; in combination with ZOL,0.25
same,antifungal MICc,[7]; in combination with 10-ZOL,0.25
same,antifungal MICc,[7]; in combination with ZOL,2
same,antifungal MICc,[8]; in combination with 10-ZOL,0.25
same,antifungal MICc,[8]; in combination with ZOL,0.25
same,MIC / MEC,[19],0.25 µg/mL
same,MIC / MEC,[9],1 µg/mL
same,MIC / MEC,[10],0.25 µg/mL
same,MIC / MEC,[11],0.13 µg/mL
same,antifungal MICc,[12]; in combination with 10-ZOL,0.5
same,antifungal MICc,[12]; in combination with ZOL,0.5
same,antifungal MICc,[13]; in combination with 10-ZOL,0.25
same,antifungal MICc,[13]; in combination with ZOL,0.0625
same,antifungal MICc,[14]; in combination with 10-ZOL,0.063
same,antifungal MICc,[14]; in combination with ZOL,0.0625
same,antifungal MICc,[15]; in combination with 10-ZOL,0.125
same,antifungal MICc,[15]; in combination with ZOL,0.063
same,antifungal MICc,[16]; in combination with 10-ZOL,0.063
same,antifungal MICc,[16]; in combination with ZOL,0.125
same,MIC / MEC,[17],0.5 µg/mL
